In US12415844B2, “BCMA specific VCAR compositions and methods for use” (Poseida Therapeutics, Inc., priority 2017, dated 2025):
Read-outs that look alike come from different tables or passages of the source.

Experiments:
cells [1] = conditions: cited from earlier work
cells [2] = assay: AP1903 amount needed in vitro for effective signaling of cells; assay type: cell-based; conditions: equates to 10-100 nM
Procedure: The fixed dose of AP1903 for injection used, for example, may be 0.4 mg/kg intravenously infused over 2 hours. The amount of AP1903 needed in vitro for effective signaling of cells is 10-100 nM (1600 Da MW). This equates to […] or […]. Doses up to 1 mg/kg were well tolerated in the Phase I study of AP1903 described above. Therefore, 0.4 mg/kg may be a safe and effective dose of AP1903 for this Phase I study in combination with the therapeutic cells.

[3] = cited from earlier work

CC[C@H](C(=O)N1CCCC[C@H]1C(=O)O[C@H](CCc1ccc(OC)c(OC)c1)c1cccc(OCC(=O)NCCNC(=O)COc2cccc([C@@H](CCc3ccc(OC)c(OC)c3)OC(=O)[C@@H]3CCCCN3C(=O)[C@@H](CC)c3cc(OC)c(OC)c(OC)c3)c2)c1)c1cc(OC)c(OC)c(OC)c1 (relative stereo) [AP1903, 2-Piperidinecarboxylic acid, 1-[(2S)-1-oxo-2-(3,4,5-trimethoxyphenyl)butyl]-, 1,2-ethanediylbis[imino(2-oxo-2,1-ethanediyl)oxy-3,1-phenylene[(1R)-3-(3,4-dimethoxyphenyl)propylidene]]ester, [2S-[1(R*),2R*[S*[S*[1(R*),2R*]]]]]-(9C1)]
amount needed in vitro for effective signaling of cells (cells [1]): 10 to 100 nM | amount needed for effective signaling, converted (1600 Da MW) (cells [2]): 16 to 160 µg/L | plasma levels versus dose ([3]; 0.01-1.0 mg/kg): directly proportional to dose | plasma level as % of maximal concentration ([3]; 0.5 hours post-dose): approximately 18% | plasma level as % of maximal concentration ([3]; 2 hours post-dose): ~7% | plasma level as % of maximal concentration ([3]; 10 hours post-dose): ~1% | well tolerated doses ([3]; Phase I study): up to 1 mg/kg | safety and tolerability ([3]; dose levels 0.01, 0.05, 0.1, 0.5 and 1.0 mg/kg IV over 2 hours): safe and well tolerated at all dose levels | pharmacokinetic profile ([3]; healthy volunteers): favorable pharmacokinetic profile | mean Cmax ([3]; single doses 0.01-1.0 mg/kg infused IV over 2 hours, healthy volunteers, plasma): 10 to 1275 ng/mL
